# Assays:
# Rattus norvegicus [1] = test: Total electrolytic excretion of chlorine in urine of rats after peroral administration of 58.4 uM/Kg of drug; type: ADME, organism-based; details: in vivo, po
# Rattus norvegicus [2] = test: Total electrolytic excretion of sodium in urine of rats after peroral administration of 19.5 uM/Kg of drug; type: ADME, organism-based; details: in vivo, po
# Rattus norvegicus [3] = test: Total electrolytic excretion of sodium in urine of rats after peroral administration of 195 uM/Kg of drug; type: ADME, organism-based; details: in vivo, po
# Rattus norvegicus [4] = test: Total electrolytic excretion of potassium in urine of rats after peroral administration of 58.4 uM/Kg of drug; type: ADME, organism-based; details: in vivo, po
# Rattus norvegicus [5] = test: Total electrolytic excretion of chlorine in urine of rats after peroral administration of 195 uM/Kg of drug; type: ADME, organism-based; details: in vivo, po
# Rattus norvegicus [6] = test: Total electrolytic excretion of potassium in urine of rats after peroral administration of 19.5 uM/Kg of drug; type: ADME, organism-based; details: in vivo, po
# Rattus norvegicus [7] = test: Total electrolytic excretion of potassium in urine of rats after peroral administration of 195 uM/Kg of drug; type: ADME, organism-based; details: in vivo, po
# Rattus norvegicus [8] = test: Ratio of Total electrolytic excretion of sodium and potassium in urine of rats after intravenous administration of 19.5 uM/Kg of drug; type: ADME, organism-based; details: in vivo
# Rattus norvegicus [9] = test: Tested for the diuretic activity by measuring the urinary volume after peroral administering 58.4 uM/Kg of drug in rats; type: ADME, organism-based, Urine; details: in vivo, po
# Rattus norvegicus [10] = test: Total electrolytic excretion of sodium in urine of rats after peroral administration of 58.4 uM/Kg of drug; type: ADME, organism-based; details: in vivo, po
# Rattus norvegicus [11] = test: Tested for the diuretic activity by measuring the urinary volume after peroral administering 19.5 uM/Kg of drug in rats; type: ADME, organism-based, Urine; details: in vivo, po
# Rattus norvegicus [12] = test: Tested for the diuretic activity by measuring the urinary volume after peroral administering 195 uM/Kg of drug in rats; type: ADME, organism-based, Urine; details: in vivo, po
# Rattus norvegicus [13] = test: Ratio of Total electrolytic excretion of sodium and potassium in urine of rats after peroral administration of 19.5 uM/Kg of drug; type: ADME, organism-based; details: in vivo, po
# Rattus norvegicus [14] = test: Ratio of Total electrolytic excretion of sodium and potassium in urine of rats after peroral administration of 195 uM/Kg of drug; type: ADME, organism-based; details: in vivo, po
# Rattus norvegicus [15] = test: Ratio of Total electrolytic excretion of sodium and potassium in urine of rats after intravenous administration of 5.84 uM/Kg of drug; type: ADME, organism-based; details: in vivo
# Rattus norvegicus [16] = test: Ratio of Total electrolytic excretion of sodium and potassium in urine of rats after peroral administration of 58.4 uM/Kg of drug; type: ADME, organism-based; details: in vivo, po
# Rattus norvegicus [17] = test: Total electrolytic excretion of chlorine in urine of rats after peroral administration of 19.5 uM/Kg of drug; type: ADME, organism-based; details: in vivo, po
compound,measurement,setting,value
C1CN(/C(=N\C23CC4CC(CC(C4)C2)C3)NC23CC4CC(CC(C4)C2)C3)CCO1,Excretion Cl-,Rattus norvegicus [1],1.97 m equiv
same,Excretion Na+,Rattus norvegicus [2],1.51 m equiv
same,Excretion Na+,Rattus norvegicus [3],1.9 m equiv
same,Excretion K+,Rattus norvegicus [4],0.27 m equiv
same,Excretion Cl-,Rattus norvegicus [5],1.66 m equiv
same,Excretion K+,Rattus norvegicus [6],0.23 m equiv
same,Excretion K+,Rattus norvegicus [7],0.25 m equiv
same,Ratio,Rattus norvegicus [8],6.8
same,V,Rattus norvegicus [9],12.8 mL
same,Excretion Na+,Rattus norvegicus [10],2.04 m equiv
same,V,Rattus norvegicus [11],10.1 mL
same,V,Rattus norvegicus [12],10.9 mL
same,Ratio,Rattus norvegicus [13],6.6 [Na+]/[K+]
same,Ratio,Rattus norvegicus [14],7.6 [Na+]/[K+]
same,Ratio,Rattus norvegicus [15],8 [Na+]/[K+]
same,Ratio,Rattus norvegicus [16],7.5 [Na+]/[K+]
same,Excretion Cl-,Rattus norvegicus [17],1.52 m equiv
